The values that follow are results of earlier work, collected in patent US6469171B1, “Syntheses of a variety of lamellarin compounds and analogues” (The Australian National University, priority 1998, dated 2002).

The subject of one series is fertilised sea urchin. Conditions: fertilised sea urchin assay.
For the next series, the system named is A549 cell line. Conditions: A549 cell line in culture.
The next series concerns P388 cell line. To be noted: P388 cell line in culture.
The next series has as its system lung cancer cell lines. Conditions: by acting as a Type IV microtubule poison.

For `COc1cc(-c2c3n(c4c(=O)oc5cc(O)c(OC)cc5c24)CCc2c-3cc(OC)c(OC)c2OC)ccc1O` [Lamellarin C], the “inhibition of cell division” value in the series on fertilised sea urchin is given as “inhibition of cell division”. Take `COc1ccc(-c2c3n(c4c(=O)oc5cc(O)c(OC)cc5c24)CCc2cc(O)c(OC)cc2-3)cc1O` [Lamellarin L]: the cytotoxicity entry with A549 cell line and with P388 cell line was “significant cytoxicity” each time. For the compound `COc1ccc(-c2c3c4cc(OC)c(O)cc4oc(=O)c3n3ccc4cc(O)c(OC)cc4c23)cc1O` [Lamellarin N], in the series with lung cancer cell lines, the “activity in lung cancer cell lines” value is given as “activity”.

As to `COc1cc(-c2c3c4cc(OC)c(O)cc4oc(=O)c3n3ccc4cc(O)c(OC)cc4c23)ccc1O` [Lamellarin D], the “inhibition of cell division” value in the series with fertilised sea urchin was “inhibition of cell division”. As for Lamellarin I, the cytotoxicity result with A549 cell line and with P388 cell line was “significant cytoxicity” in each case. With Lamellarin K, the cytotoxicity result in the series with A549 cell line and in the series with P388 cell line was “significant cytoxicity” throughout.
